Values quoted from earlier work in patent publication US12727761B2, “Dosimetry system for photodynamic anitmicrobial therapy device of infectious keratitis” (UNIVERSITY OF MIAMI, priority 2020, dated 2026).

Legend:
[1] = system: fungal and bacterial isolates derived from patients with infectious keratitis; details: Rose Bengal photodynamic antimicrobial therapy (RB-PDAT)
corneal infection = details: RB-PDAT as experimental therapy for corneal infection
Candida albicans = details: erythrosine-mediated PDT
[2] = system: keratitis derived Acanthamoeba castellanii

Compound: O=C([O-])c1c(Cl)c(Cl)c(Cl)c(Cl)c1-c1c2cc(I)c(=O)c(I)c-2oc2c(I)c([O-])c(I)cc12.[Na+].[Na+] [Rose Bengal]
- inhibition of fungal and bacterial isolates [1]: fully inhibit
- patients who avoided undergoing emergency corneal transplantation (corneal infection): approximately 72%

Compound: O=C1OC2(c3ccccc31)c1cc(I)c(O)c(I)c1Oc1c2cc(I)c(O)c1I [erythrosine]
- reduction in concentration (Candida albicans): 1.97 log10

Compound: CN(C)c1ccc2nc3ccc(=[N+](C)C)cc-3sc2c1 [methylene blue]
- respiratory activity ([2]; methylene blue-mediated PDT): significantly reduce
- effects with traditional Acanthamoeba treatment regimens ([2]; methylene blue-mediated PDT combined with traditional treatment regimens): synergistic effects
